Laboratory results: a melting point compilation (Tetko et al.; mined from patent text by program, amines drawn as free bases though some values may be those of a salt)

| SMILES | melting point [°C] |
| --- | --- |
| COC(=O)c1cc(=O)c2cc(OC)cc(N)c2o1 | 145 to 147 |
| CN(Cc1ccccc1)c1nc(N2CCC(NCC(c3ccccc3)c3ccccc3)CC2)nc2c(N3CCOCC3)ncnc12 | 106 to 108 |
| CCCc1nc2c(N)nc3cc(OCc4ccc(F)cc4)ccc3c2n1CC(C)C | 198 to 200 |
| CCCCOc1c(CNC(=O)OC(C)(C)C)n(CC(C)C)c(=O)c2ccc(O)cc12 | 185 to 186 |
| Cc1nc(N(C)C)nc(N)c1-c1cc(Cl)cc(Cl)c1Cl | 151 to 153 |
| COc1cc2nc(N3CCN(c4ccnc(N5CCOCC5)n4)CC3)nc(N)c2cc1OC | 232 to 233 |
| O=C(O)[C@@H]1CCCN1C(=O)C1CCCC1S (stereo not given in full) | 97 |
| CCCc1nn(-c2ccc(C(F)(F)F)cn2)cc1CCCOc1ccccc1CC(=O)O | 100 to 101 |
| COc1ccc(Cn2c(=O)c(NN)nc3ccc4ccccc4c32)c(OC)c1 | 182 to 183 |
| CS(=O)(=O)c1cc(C(=O)O)c(N)cc1Cl | 284 to 286 |
| N#Cc1ccc(NC(=O)C(F)(F)C(F)(F)C(F)(F)F)cc1 | 116 to 118 |
| Nc1ccccc1C(=O)COC(=O)c1ccccc1 | 125 |
| Cc1cc(Oc2ccc3nc(COc4ccc(CC5SC(=O)NC5=O)cc4)n(C)c3c2)cc(C)c1NC(=S)Nc1ccc(Cl)cc1 (stereo not given) | 160 to 162 |
| CC(C)(C)c1ccc(-c2ccc3nncn3n2)cc1 | 270 to 275 |
| CC(C(=O)N(C)C)n1ccc(-c2c(Cl)cccc2Cl)n1 (stereo not given) | 88 to 90 |
| Oc1c(Br)cc(-c2c3ccccc3c(Cl)c3sc4ccccc4c23)cc1Br | 222 to 223 |
| CCOC(=O)COCc1nnc(S)n1C | 86 to 88 |
| CC(C(=O)O)c1ccc2c(c1)CC(C(C)C)C2 (stereo not given) | 90 to 91.5 |
| CCC(C)(C)c1cc(-c2cccc(CC3SC(N4CCOCC4)=NC3=O)n2)ccc1O (stereo not given) | 240 to 242 |
| CC(=O)c1ccc(C=CC(=O)NCCO)cc1 | 124 to 125 |
| COc1ccc(-n2c(-c3ccc(OCCCl)cc3)nc3c(OC)cccc3c2=O)cc1 | 151 to 152 |
| CN1CCC(OC2c3ccccc3CCn3cc(I)nc32)CC1 (stereo not given) | 126 |
| Cn1c(=O)[nH]c(=O)c2c1ncn2CCCCCCO | 219 to 220 |
| NC(=O)C(F)(F)C(F)(F)C(F)(F)C(F)(F)C(F)(F)C(F)(F)C(F)(F)F | 136 to 137 |
| CC1(C)CC(=NN)c2ccccc21 | 194 to 197 |

| SMILES | melting point [°C] |
| --- | --- |
| CN(c1c(Cl)cc(Cl)cc1Cl)n1cc(C#N)c(=O)n(C)c1=O | 175 to 178 |
| O=C(O)c1ccc2c(c1)S(=O)(=O)NCN2C1CC1 | 263 to 265 |
| CC(C)CC1NCCNC1=O (stereo not given) | 75 to 77 |
| Cc1nc(N)nc(N)c1CCCc1ccc(Cl)cc1Cl | 181 to 185 |
| NOCc1ccn(C(c2ccccc2)(c2ccccc2)c2ccccc2)n1 | 105 to 110 |
| CCc1nc2c(cnn2CC)c(NC2CCOCC2)c1CNC(=O)c1cc(C)cc(C(=O)O)c1 | 236 to 239 |
| Cc1ccc(S(=O)(=O)N2C(=O)c3cc4c(cc3[C@H]3[C@@H](C=O)[C@H](O[Si](C)(C)C(C)(C)C)[C@H]5OC(C)(C)O[C@H]5[C@@H]32)OCO4)cc1 | > 200 |
| COc1cc(C(=O)NS(=O)(=O)c2ccccc2C)ccc1Cc1cccc2ccc(CCCC(=O)N(C)C)cc12 | 166 to 168 |
| CC(=O)C1=C(C)NC(=O)N(C(C)=O)C1c1ccccc1 (stereo not given) | 181 to 183 |
| O=C(OCc1ccccc1)C1=CCC2C(C(O)c3ccccc3)C(=O)N12 (stereo not given) | 124 |
| O=C(CC1CSCCC1=O)c1ccc(Br)cc1 (stereo not given) | 87.5 to 89.5 |
| Cc1cc(-c2ccc(C(F)(F)F)cc2)cn2c(-c3nc(-c4ccc(S(N)(=O)=O)s4)no3)cnc12 | 285 |
| COc1cc(-c2cc(C3CCOCC3)no2)cc2oc(=O)c(C)c(C)c12 | 151 |
| O=C(Nc1ccc2cc(CN3CCCC3)ccc2c1)c1ccc(-c2ccc(F)cc2)nc1 | 238 to 240 |
| O=C(C1CC1)N1CCC2C1CCCC2(O)c1ccc(Cl)cc1 (stereo not given) | 167 to 169 |
| COC1=CC(=O)C2=C(CC=CC2)C1=O | 172 |
| CC(=O)N[C@@H](CSC(=O)C(C)C)C(=O)NCCSC(=O)C(C)(C)C | 101 to 102 |
| NS(=O)(=O)c1ccc(N2C(=O)CN(c3ccccc3)C2=O)c(Cl)c1 | 241 to 243 |
| CSc1cncnc1-c1ssc(=S)c1C | 89 to 90 |
| COC(=O)C(Cc1ccccc1)NC(=O)C(CC(=O)O)NC(=O)CC(C)=O (stereo not given) | 118 to 121 |
| c1ccc2sc(C3CCNCC3)cc2c1 | 82 to 84 |
| O=Cc1ccc(Oc2ccc(F)cc2)cc1 | 69 to 73 |
| O=C(O)c1cc(F)ccc1Sc1ccccc1 | 146 to 148 |
| Cc1nn(-c2c(Cl)cc(C(F)(F)F)cc2Cl)c(N)c1I | 116 to 118 |
| Cc1nc2ccc(S(=O)(=O)n3c(CCCC(=O)O)cc4cc(C(F)(F)F)ccc43)cc2o1 | 214 to 220 |

| SMILES | melting point [°C] |
| --- | --- |
| CCCCCCNC1=NS(=O)(=O)c2sc(Cl)cc2N1 | 207 to 209 |
| CCCCCCCCCCCC(=O)N[C@@H](C)C(=O)N[C@H](CCC(=O)OCc1ccccc1)C(N)=O | 169 |
| CSc1nncn1-c1ccc(N2C[C@H](CNC(C)=O)OC2=O)cc1F | 188 to 190 |
| O=C(Nc1ccc(F)cc1)c1ccccc1-c1cccc(F)c1 | 147 to 148 |
| CCOC(=O)C1CC(C)CCN1C(=O)c1ccc(Cl)c(C2(C)C(=O)N(Cc3ccc(OC)cc3OC)c3ccc(Cl)cc32)c1 (stereo not given) | 106 |
| COC(=O)Nc1cc(F)c(Br)cc1I | 101 to 102 |
| Cc1ccc(C(=O)C=Cc2ccc[nH]2)cc1 | 158 to 160 |
| COc1ccc(OC)c2c1CC[C@](O)(C(C)=O)C2 | 117 to 120 |
| c1ccc2c(c1)nc(NC1CCCC1)c1nncn12 | 257 to 260 |
| CCOC(=O)C(=Cc1ccc(C)s1)C(=O)OCC | 53 to 56 |
| CCOC(=O)C1=C(C)NC(c2ncsc2Cl)=NC1c1ccc(F)cc1Cl (stereo not given) | 149 to 152 |
| N[C@@H](CO)C(=O)Nn1cccc1 | 135 to 137 |
| C[C@@H](Cn1ncc2ccc(OC[C@@H]3CO3)c(C=O)c21)NC(=O)OCc1ccccc1 | 90 to 92 |
| CCN(CC)C(=O)c1ccc2ccccc2c1-c1ccc(OC)cc1 | 114 to 116 |
| CC(C)(C)n1ncc(C(=O)O)c1Cl | 132 to 134 |
| COC(=O)CCCCCCCNC(=O)C(CSC(C)=O)Cc1ccccc1 (stereo not given) | 44 to 45 |
| CC(C)=NNC1=NCc2c[nH]c3cccc1c23 | 200 to 201 |
| Cc1c(F)c(OC(F)F)cc2c1c(C#N)c(-c1ccc(S(=O)(=O)N[C@@H](C)C(F)(F)F)cn1)n2C1CCC1 | 182 to 186 |
| Cc1nc(Nc2ccccc2)sc1-c1cccnc1 | 178 to 180 |
| Nc1ccc2c(c1)c(=O)oc1cccc(O)c12 | > 260 |
| O=C(NC1CCCCC1)c1c(O)c2cc(F)ccc2n(Cc2ccc(F)cc2)c1=O | 118 |
| CS(=O)(=O)OCCOc1ccccc1OCC1CC1 | 90 to 91 |
| Cc1c(C)c(N2CCN(c3nncs3)CC2)c(C)c2c1OC(C)C2 (stereo not given) | 203 to 205 |
| CN(C(=O)Oc1ccc([N+](=O)[O-])cc1)c1ccc(-c2ncn(-c3ccc(OC(F)(F)F)cc3)n2)cc1 | 145 to 147 |
| COC(=O)C[C@H](O)CC(=O)C=Cc1c(-c2ccc(F)cc2)c(-c2ccccc2)c(C(=O)NCc2ccc(F)cc2)n1C(C)C | 62 to 63 |

| SMILES | melting point [°C] |
| --- | --- |
| O=C(O)c1ccc(-c2cnc3c(c2)N(Cc2c(F)ccc(F)c2Cl)C(=O)CN3)cc1 | > 300 |
| COC(=O)C1=C(CC(=O)N2CCN(C)CC2)NC(CS(=O)c2ccccc2OC)=C(C(=O)OC)C1c1c(Cl)cccc1Cl (stereo not given) | 160 |
| Brc1ccc(OCCC(c2ccccc2)c2ccccc2)cc1 | 70 to 71 |
| CCOC(=O)C=Cc1ccc(OCc2ccccc2)c(OC)c1 | 74.5 to 75 |
| CC(C)(C)c1cc(CCc2ccccc2NC(=O)NCCc2ccc(F)cc2)cc(C(C)(C)C)c1O | 177 to 179 |
| COc1cc(COc2nn(-c3ccccc3)cc2/C=C/c2cnco2)ccc1OCc1nc(-c2ccco2)oc1C | 137 to 138 |
| Cc1nc2cc(C(=O)NC3CC3)c(NC(=O)c3cc(C(F)(F)F)nn3-c3ncccc3Cl)c(Cl)c2n1C | 233 to 235 |
| COC(=O)c1ccsc1COc1ccc(CCCCO)cc1 | 58 to 60 |
| COc1cc(C#CC(=O)O)cc(OC)c1OCc1ccccc1 | 115 to 116 |
| COC(=O)CCC(=O)Nc1cccc(COc2ccc(C(C)=O)c(OC)c2)c1 | 124 |
| COC(=O)c1cc(CCC2CNc3nc(NC(=O)C(C)(C)C)nc(O)c3C2)c[nH]1 (stereo not given) | 236 to 238 |
| COC(=O)Cc1cccc(Cc2ccccc2C(=O)O)c1 | 67 to 70 |
| CCCOc1ccccc1-c1nc2c(C=CCc3ccccc3)cccc2c(=O)[nH]1 | 123 to 126 |
| Cc1c(NC(=O)c2ccc(-c3ccc(F)cc3)cc2)ccc2cc(CN(C(C)C)C(C)C)cnc12 | 179 to 180 |
| O=C(O)c1cn(C(c2ccccc2)(c2ccccc2)c2ccccc2)c(I)n1 | 203 to 205 |
| CCCC[C@H]1CC[C@H](OC(=O)c2cc(Sc3ccc(C)cc3)c3c(c2N)C(=O)c2ccccc2C3=O)CC1 | 176 to 177 |
| CN1CC[C@@H](c2c(O)cc(O)c3c(=O)cc(-c4c(F)cccc4F)oc23)[C@@H]1CO | 242 to 244 |
| N=C(NC(c1ccccc1)c1ccccc1)N1CCOCC1 | 122 to 124 |
| CCOC(=O)N1CCc2nnc(NN=C(C)C)cc2C1 | 171 to 174 |
| N#CC(C#N)=CN(N=C(C#N)C#N)c1ccc(Cl)c(Cl)c1 | 162 to 164 |
| O=C(C=Cc1ccc(O)cc1)N(CCO)CCO | 148 to 150 |
| CCOC(=O)Cc1ccc2c(c1)CC(CC(=O)O)C2 (stereo not given) | 56 to 57 |
| CCOc1nc(SC)nc(N2CCS(=O)CC2)c1[N+](=O)[O-] | 102 to 104 |
| CCCCCCCCCCN(CCC12CC3CC(CC(C3)C1)C2)C(=O)NCCCc1ccncc1 | 75 to 76 |
| NP(N)(=O)NC(=O)c1cccs1 | 272 to 280 |
